According to the NIST ThermoML archive (doi:10.1016/j.jct.2005.04.015):
Numbers after ± are expanded uncertainties.

Assay: excess molar enthalpy (molar enthalpy of mixing); xn = mol fraction of the nth substance listed
Settings: Liquid, Flow calorimetry

CCOC=O [ethyl methanoate] + CCCCO
excess molar enthalpy [kJ/mol]
Settings	298.15 K	308.15 K
5000 kPa, x1 = 0.0499	0.385 ± 0.0084	–
5000 kPa, x1 = 0.1005	0.712 ± 0.015	–
5000 kPa, x1 = 0.1488	0.97 ± 0.021	–
5000 kPa, x1 = 0.2008	1.19 ± 0.025	–
5000 kPa, x1 = 0.2505	1.36 ± 0.029	–
5000 kPa, x1 = 0.3009	1.48 ± 0.032	–
5000 kPa, x1 = 0.3488	1.58 ± 0.034	–
5000 kPa, x1 = 0.4006	1.64 ± 0.035	–
5000 kPa, x1 = 0.4498	1.68 ± 0.036	–
5000 kPa, x1 = 0.4997	1.67 ± 0.036	–
5000 kPa, x1 = 0.6015	1.57 ± 0.034	–
5000 kPa, x1 = 0.65	1.49 ± 0.032	–
5000 kPa, x1 = 0.6991	1.38 ± 0.029	–
5000 kPa, x1 = 0.7489	1.23 ± 0.026	–
5000 kPa, x1 = 0.7993	1.05 ± 0.023	–
5000 kPa, x1 = 0.8503	0.847 ± 0.018	–
5000 kPa, x1 = 0.8983	0.618 ± 0.013	–
5000 kPa, x1 = 0.9507	0.305 ± 0.0067	–
10000 kPa, x1 = 0.0497	0.38 ± 0.0083	–
10000 kPa, x1 = 0.1002	0.709 ± 0.015	–
10000 kPa, x1 = 0.1501	–	1.08 ± 0.023
10000 kPa, x1 = 0.1514	0.975 ± 0.021	–
10000 kPa, x1 = 0.1999	–	1.31 ± 0.028
10000 kPa, x1 = 0.2003	1.18 ± 0.025	–
10000 kPa, x1 = 0.2499	1.33 ± 0.029	–
10000 kPa, x1 = 0.2504	–	1.5 ± 0.032
10000 kPa, x1 = 0.2989	–	1.63 ± 0.035
10000 kPa, x1 = 0.3002	1.45 ± 0.031	–
10000 kPa, x1 = 0.3508	–	1.74 ± 0.037
10000 kPa, x1 = 0.3513	1.56 ± 0.033	–
10000 kPa, x1 = 0.3998	1.61 ± 0.035	–
10000 kPa, x1 = 0.4007	–	1.8 ± 0.038
10000 kPa, x1 = 0.449	1.64 ± 0.035	–
10000 kPa, x1 = 0.4514	–	1.83 ± 0.039
10000 kPa, x1 = 0.4989	1.64 ± 0.035	–
10000 kPa, x1 = 0.4998	–	1.83 ± 0.039
10000 kPa, x1 = 0.549	–	1.8 ± 0.038
10000 kPa, x1 = 0.5494	1.61 ± 0.034	–
10000 kPa, x1 = 0.5988	–	1.73 ± 0.037
10000 kPa, x1 = 0.6007	1.55 ± 0.033	–
10000 kPa, x1 = 0.6492	1.47 ± 0.031	1.64 ± 0.035
10000 kPa, x1 = 0.6984	1.36 ± 0.029	–
10000 kPa, x1 = 0.7004	–	1.51 ± 0.032
10000 kPa, x1 = 0.7482	1.2 ± 0.026	–
10000 kPa, x1 = 0.7493	–	1.36 ± 0.029
10000 kPa, x1 = 0.7987	1.02 ± 0.022	1.18 ± 0.025
10000 kPa, x1 = 0.8488	–	0.953 ± 0.021
10000 kPa, x1 = 0.8499	0.809 ± 0.017	–
10000 kPa, x1 = 0.8996	–	0.691 ± 0.015
10000 kPa, x1 = 0.9018	0.559 ± 0.012	–
10000 kPa, x1 = 0.9506	0.314 ± 0.0069	–

CCOC=O [ethyl methanoate] + CCCO
excess molar enthalpy [kJ/mol]
Settings	298.15 K	308.15 K
5000 kPa, x1 = 0.0488	0.296 ± 0.0065	–
5000 kPa, x1 = 0.1003	0.627 ± 0.014	–
5000 kPa, x1 = 0.1515	0.888 ± 0.019	–
5000 kPa, x1 = 0.1993	1.08 ± 0.023	–
5000 kPa, x1 = 0.2498	1.24 ± 0.027	–
5000 kPa, x1 = 0.3	1.36 ± 0.029	–
5000 kPa, x1 = 0.3498	1.44 ± 0.031	–
5000 kPa, x1 = 0.3992	1.5 ± 0.032	–
5000 kPa, x1 = 0.4512	1.52 ± 0.033	–
5000 kPa, x1 = 0.5	1.51 ± 0.032	–
5000 kPa, x1 = 0.5513	1.48 ± 0.032	–
5000 kPa, x1 = 0.5995	1.43 ± 0.03	–
5000 kPa, x1 = 0.6501	1.35 ± 0.029	–
5000 kPa, x1 = 0.7003	1.24 ± 0.027	–
5000 kPa, x1 = 0.7502	1.11 ± 0.024	–
5000 kPa, x1 = 0.7998	0.939 ± 0.02	–
5000 kPa, x1 = 0.849	0.758 ± 0.016	–
5000 kPa, x1 = 0.9006	0.517 ± 0.011	–
5000 kPa, x1 = 0.9491	0.279 ± 0.0062	–
10000 kPa, x1 = 0.0487	0.331 ± 0.0073	0.294 ± 0.0065
10000 kPa, x1 = 0.1	0.66 ± 0.014	–
10000 kPa, x1 = 0.1511	0.92 ± 0.02	0.925 ± 0.02
10000 kPa, x1 = 0.1988	1.11 ± 0.024	1.13 ± 0.024
10000 kPa, x1 = 0.2492	1.27 ± 0.027	1.29 ± 0.028
10000 kPa, x1 = 0.2993	1.39 ± 0.03	1.42 ± 0.03
10000 kPa, x1 = 0.349	1.46 ± 0.031	1.51 ± 0.032
10000 kPa, x1 = 0.4013	1.52 ± 0.033	1.57 ± 0.034
10000 kPa, x1 = 0.4504	1.55 ± 0.033	1.6 ± 0.034
10000 kPa, x1 = 0.4992	1.54 ± 0.033	1.6 ± 0.034
10000 kPa, x1 = 0.5505	1.51 ± 0.032	1.56 ± 0.033
10000 kPa, x1 = 0.5987	1.46 ± 0.031	1.5 ± 0.032
10000 kPa, x1 = 0.6493	1.38 ± 0.029	1.41 ± 0.03
10000 kPa, x1 = 0.6996	1.26 ± 0.027	1.3 ± 0.028
10000 kPa, x1 = 0.7496	1.13 ± 0.024	1.16 ± 0.025
10000 kPa, x1 = 0.7993	0.97 ± 0.021	0.98 ± 0.021
10000 kPa, x1 = 0.8513	0.771 ± 0.017	0.776 ± 0.017
10000 kPa, x1 = 0.9003	0.551 ± 0.012	0.56 ± 0.012
10000 kPa, x1 = 0.949	0.301 ± 0.0067	0.269 ± 0.006
